Literature values in patent publication US20100016582A1 (Wyeth, priority 2008, published 2010).

Legend:
uterine response = details: preclinical models of uterine stimulation
[1] = test system: ovariectomized rat model of osteopenia
[2] = test system: MCF-7 cell line (human breast cancer cell line)
[3] = drug formulations; acetic acid
[4] = contact with a solvent or solvent mixture (e.g., ethyl acetate and ethanol)

SMILES | stimulation of uterine response (uterine response) | prevention of bone loss [1] | reduction of cholesterol [1] | estrogen antagonist behaviour [2] | bioavailability [3] | conversion of Form A to Form B [4]
Cc1c(-c2ccc(O)cc2)n(Cc2ccc(OCCN3CCCCCC3)cc2)c2ccc(O)cc12 [bazedoxifene acetate, 1-[4-(2-azepan-1-yl-ethoxy)-benzyl]-2-(4-hydroxy-phenyl)-3-methyl-1H-indol-5-ol acetic acid] | little or no stimulation of uterine response | estrogen agonist-like effect in preventing bone loss | reducing cholesterol | behaves as an estrogen antagonist | – | –
Cc1c(-c2ccc(O)cc2)n(Cc2ccc(OCCN3CCCCCC3)cc2)c2ccc(O)cc12 [Form A, 1-[4-(2-azepan-1-yl-ethoxy)-benzyl]-2-(4-hydroxy-phenyl)-3-methyl-1H-indol-5-ol acetic acid] | – | – | – | – | better bioavailability in some drug formulations | can easily convert to Form B
